Read-outs that look alike come from different tables or passages of the source.
Assays:
Diaporthe citri [1] = test: in vitro-Test with fungal microorganisms, Method A (tables F1-F11); assay type: cell-based; conditions: Diaporthe citri, applied alone, read-out: Efficacy
Method in brief: (§1)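 Growth inhibition was measured photometrically at 620 nm 3–5 days after application, with 100% efficacy meaning no growth and 0% meaning growth equal to the untreated control. Fungal spore or mycelium suspension in potato dextrose broth was added onto solvent-evaporated compound and incubated at 20° C and 85% relative humidity.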

[2] = system: Ustilago segetum var. avenae; test: in vitro-Test with fungal microorganisms, Method A (tables I1-I5); assay type: cell-based; conditions: alone, read-out: Efficacy %
Method in brief: as §1

Colletotrichum coccodes = test: in vitro-Test with fungal microorganisms, Method B (tables J1-J11); assay type: cell-based; conditions: Colletotrichum coccodes, read-out: Efficacy %
Method in brief: (§2)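 Efficacy scale: 0% means growth equal to the untreated control, 100% means none detected. Compounds are dried from methanol with emulsifier before adding inoculated growth medium; incubation at 20° C., 85% relative humidity for 3 to 7 days precedes photometric inhibition readout.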

[3] = system: Colletotrichum lindemuthianum; test: in vitro-Test with fungal microorganisms, Method A (tables D1-D8); assay type: cell-based; conditions: Colletotrichum lindemuthianum, read-out: Efficacy %
Method in brief: as §1

Botrytis cinerea [4] = test: in vitro-Test with fungal microorganisms, Method A (tables B1-B14); assay type: cell-based; conditions: for inhibition of growth at 0.8 ppm / inhibition of growth at 4 ppm / inhibition of growth at 20 ppm: Botrytis cinerea
Method in brief: as §1

Cercospora beticola [5] = test: in vitro-Test with fungal microorganisms, Method B (tables C11-C20); assay type: cell-based; conditions: Cercospora beticola, read-out: Efficacy %
Method in brief: as §2

Fusarium culmorum [6] = test: in vitro-Test with fungal microorganisms, Method A (tables G1-G4); assay type: cell-based; conditions: for inhibition of growth at 20 ppm / inhibition of growth at 0.8 ppm / inhibition of growth at 4 ppm: Fusarium culmorum, read-out: Efficacy
Method in brief: as §1

Parastagonospora nodorum [7] = test: in vitro-Test with fungal microorganisms, Method B (tables H5-H8); assay type: cell-based; conditions: Parastagonospora nodorum, read-out: Efficacy
Method in brief: as §2

Parastagonospora nodorum [8] = test: in vitro-Test with fungal microorganisms, Method A (tables H1-H4); assay type: cell-based
Method in brief: as §1

Diaporthe citri [9] = test: in vitro-Test with fungal microorganisms, Method B (tables F12-F15); assay type: cell-based; conditions: Table F15
Method in brief: as §2

Alternaria alternate = test: in vitro-Test with fungal microorganisms, Method A (tables A1-A12); assay type: cell-based, Alternaria alternata; conditions: Alternaria, applied alone, read-out: Efficacy %
Method in brief: as §1

Cordana musae [10] = test: in vitro-Test with fungal microorganisms, Method A (tables E1-E8); assay type: cell-based
Method in brief: as §1

[11] = system: Ustilago segetum var. avenae; test: in vitro-Test with fungal microorganisms, Method B (tables I6-I11); assay type: cell-based; conditions: 20 ppm; read-out: Efficacy %
Method in brief: as §2

Fusarium culmorum [12] = test: in vitro-Test with fungal microorganisms, Method B (tables G5-G15); assay type: cell-based; conditions: Fusarium culmorum, read-out: Efficacy
Method in brief: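 Read photometrically at 600 nm after 3-7 days at 20° C and 85% relative humidity, Fusarium culmorum growth inhibition is expressed against untreated control. Wells hold solvent-evaporated compound (from methanol/emulsifier) overlaid with spore- or mycelium-amended growth medium.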

Cercospora beticola [13] = test: in vitro-Test with fungal microorganisms, Method A (tables C1-C10); assay type: cell-based; conditions: Cercospora beticola, read-out: Efficacy %
Method in brief: as §1

Alternaria alternata = test: in vitro-Test with fungal microorganisms, Method B (tables A13-A22); assay type: cell-based; conditions: Alternaria alternata, read-out: Efficacy
Method in brief: as §2

Botrytis cinerea [14] = test: in vitro-Test with fungal microorganisms, Method B (tables B15-B18); assay type: cell-based; conditions: Botrytis cinerea, alone, read-out: Efficacy %
Method in brief: as §2

Cordana musae [15] = test: in vitro-Test with fungal microorganisms, Method B (tables E9-E16); assay type: cell-based; conditions: Neocordana musae, single active, 4 ppm; read-out: Efficacy
Method in brief: as §2

[16] = alone, 0.8 ppm, read-out: Efficacy %
[17] = single active compound, 0.8 ppm

CCCN(CC)CC1COC2(CCC(C(C)(C)C)CC2)O1 (stereo not drawn) [(1.020) spiroxamine, spiroxamine]
inhibition of growth at 0.8 ppm (Diaporthe citri [1]; 0.8 ppm): 6%
inhibition of growth at 4 ppm (Diaporthe citri [1]): 8%
inhibition of growth at 20 ppm (Diaporthe citri [1]; 20.0 ppm): 0%
inhibition of growth at 0.8 ppm [2]: 3%
inhibition of growth at 4 ppm [2]: 71%
inhibition of growth at 20 ppm [2]: 100%
inhibition of growth at 0.8 ppm (Colletotrichum coccodes; 0.8 ppm): 0%
inhibition of growth at 4 ppm (Colletotrichum coccodes; 4 ppm): 0%
inhibition of growth at 20 ppm (Colletotrichum coccodes): 0%
inhibition of growth at 0.8 ppm (Colletotrichum coccodes; applied alone, 0.8 ppm): 0%
inhibition of growth at 20 ppm (Colletotrichum coccodes; applied alone): 39%
inhibition of growth at 0.8 ppm ([3]; mixing partner alone, 0.8 ppm): 0%
inhibition of growth at 20 ppm ([3]; mixing partner alone, 20.0 ppm): 6%
inhibition of growth at 0.8 ppm ([3]; single active at 0.8 ppm): 0%
inhibition of growth at 4 ppm ([3]; single active at 4.0 ppm): 8%
inhibition of growth at 20 ppm ([3]; single active at 20.0 ppm): 0%
inhibition of growth at 0.8 ppm (Botrytis cinerea [4]; 0.8 ppm, read-out: Efficacy): 0%
inhibition of growth at 4 ppm (Botrytis cinerea [4]; read-out: Efficacy): 0%
inhibition of growth at 20 ppm (Botrytis cinerea [4]; read-out: Efficacy): 18%
inhibition of growth at 0.8 ppm (Botrytis cinerea [4]; [16]): 0%
inhibition of growth at 20 ppm (Botrytis cinerea [4]; alone, read-out: Efficacy %): 14%
Efficacy % (Botrytis cinerea [4]; alone, 0.8 ppm): 0%
inhibition of growth at 4 ppm (Cercospora beticola [5]; single compound): 6%
Efficacy (Fusarium culmorum [6]; 4.0 ppm, alone): 0%
inhibition of growth at 20 ppm (Fusarium culmorum [6]; 20.0 ppm, alone): 0%
inhibition of growth at 0.8 ppm (Parastagonospora nodorum [7]; 0.8 ppm): 5%
inhibition of growth at 4 ppm (Parastagonospora nodorum [7]): 5%
inhibition of growth at 20 ppm (Parastagonospora nodorum [7]): 17%
Efficacy (Parastagonospora nodorum [8]; [17]): 2%
Efficacy (Parastagonospora nodorum [8]; single active compound, 4.0 ppm): 4%
Efficacy (Parastagonospora nodorum [8]; single active compound, 20.0 ppm): 7%
Efficacy (Diaporthe citri [9]; 4 ppm alone): 0%
Efficacy (Diaporthe citri [9]; 20 ppm alone): 4%
inhibition of growth at 0.8 ppm (Alternaria alternate; 0.8 ppm): 18%
inhibition of growth at 4 ppm (Alternaria alternate): 12%
inhibition of growth at 20 ppm (Alternaria alternate): 16%
inhibition of growth at 20 ppm (Cordana musae [10]; Neocordana musae, mixing partner alone, 20.0 ppm, read-out: Efficacy %): 9%
Efficacy % (Cordana musae [10]; mixing partner alone, 0.8 ppm): 0%

O=C(NCCc1ncc(C(F)(F)F)cc1Cl)c1ccccc1C(F)(F)F [(2.005) fluopyram, Fluopyram]
inhibition of growth at 4 ppm (Diaporthe citri [1]): 15%
inhibition of growth at 0.8 ppm [2]: 9%
inhibition of growth at 4 ppm [2]: 10%
inhibition of growth at 20 ppm [2]: 10%
inhibition of growth at 20 ppm [11]: 20%
inhibition of growth at 4 ppm (Colletotrichum coccodes; 4 ppm): 14%
inhibition of growth at 0.8 ppm (Colletotrichum coccodes; single active compound at 0.8 ppm): 0%
inhibition of growth at 4 ppm (Colletotrichum coccodes; single active compound at 4 ppm): 0%
inhibition of growth at 20 ppm ([3]; single active at 20.0 ppm): 23%
inhibition of growth at 4 ppm (Fusarium culmorum [12]; 4 ppm, alone): 21%
inhibition of growth at 0.8 ppm (Fusarium culmorum [12]; [17]): 20%
inhibition of growth at 20 ppm (Fusarium culmorum [12]; single active compound, 20 ppm): 37%
inhibition of growth at 0.8 ppm (Botrytis cinerea [4]; 0.8 ppm, read-out: Efficacy): 69%
inhibition of growth at 4 ppm (Botrytis cinerea [4]; read-out: Efficacy): 72%
inhibition of growth at 20 ppm (Botrytis cinerea [4]; read-out: Efficacy): 100%
inhibition of growth at 0.8 ppm (Botrytis cinerea [4]; [16]): 65%
inhibition of growth at 4 ppm (Botrytis cinerea [4]; alone, read-out: Efficacy %): 75%
inhibition of growth at 20 ppm (Botrytis cinerea [4]; alone, read-out: Efficacy %): 75%
inhibition of growth at 0.8 ppm (Cercospora beticola [13]; 0.8 ppm alone): 0%
inhibition of growth at 4 ppm (Cercospora beticola [13]; 4.0 ppm alone): 27%
inhibition of growth at 20 ppm (Cercospora beticola [13]; 20.0 ppm alone): 39%
inhibition of growth at 0.8 ppm (Alternaria alternata): 61%
inhibition of growth at 4 ppm (Alternaria alternata): 81%
inhibition of growth at 20 ppm (Alternaria alternata): 88%
inhibition of growth at 0.8 ppm (Alternaria alternata; single compound): 79%
inhibition of growth at 4 ppm (Alternaria alternata; single compound): 81%
inhibition of growth at 20 ppm (Alternaria alternata; single compound): 91%
inhibition of growth at 0.8 ppm (Cercospora beticola [5]): 31%
inhibition of growth at 4 ppm (Cercospora beticola [5]): 0%
inhibition of growth at 20 ppm (Cercospora beticola [5]): 56%
inhibition of growth at 0.8 ppm (Cercospora beticola [5]; single compound): 11%
inhibition of growth at 4 ppm (Cercospora beticola [5]; single compound): 0%
inhibition of growth at 20 ppm (Cercospora beticola [5]; single compound): 7%
inhibition of growth at 0.8 ppm (Fusarium culmorum [6]; 0.8 ppm, alone): 0%
inhibition of growth at 4 ppm (Fusarium culmorum [6]; 4.0 ppm, alone): 0%
inhibition of growth at 20 ppm (Fusarium culmorum [6]; 20.0 ppm, alone): 16%
inhibition of growth at 0.8 ppm (Fusarium culmorum [6]; Table G1, 0.8 ppm alone): 0%
inhibition of growth at 4 ppm (Fusarium culmorum [6]; Table G1, 4.0 ppm alone): 0%
inhibition of growth at 20 ppm (Fusarium culmorum [6]; Table G1, 20.0 ppm alone): 21%
inhibition of growth at 4 ppm (Parastagonospora nodorum [7]): 35%
inhibition of growth at 20 ppm (Parastagonospora nodorum [7]): 59%
Efficacy (Parastagonospora nodorum [8]; 0.8 ppm): 37%
Efficacy (Parastagonospora nodorum [8]; 4.0 ppm): 44%
Efficacy (Parastagonospora nodorum [8]; 20.0 ppm): 70%
inhibition of growth at 4 ppm (Alternaria alternate): 63%
inhibition of growth at 20 ppm (Alternaria alternate): 82%
inhibition of growth at 0.8 ppm (Botrytis cinerea [14]; 0.8 ppm): 51%
inhibition of growth at 4 ppm (Botrytis cinerea [14]; 4 ppm): 79%
inhibition of growth at 20 ppm (Botrytis cinerea [14]; 20 ppm): 100%
inhibition of growth at 0.8 ppm (Cordana musae [10]; Neocordana musae, single substance, 0.8 ppm, read-out: Efficacy %): 0%
inhibition of growth at 4 ppm (Cordana musae [10]; Neocordana musae, single substance, 4.0 ppm, read-out: Efficacy %): 1%
inhibition of growth at 4 ppm (Cordana musae [15]): 0%
